± gives the standard deviation of the averaged measurements.
Tests used:
Settings in all cases: treatment time: 3 days
[1] = test system: UT-SCC-24A; assay: drug sensitivity score (DSS); higher = more sensitive
Method: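 HNSCC cell lines (500 cells/well, 384-well) were cultured on plastic, on top of (2D) or embedded (3D) in Matrigel or human leiomyoma matrix Myogel (500 ug/mL; Myogel 3D mixed with rat collagen I). Cells were treated for 3 days with 5 ten-fold concentrations of each drug, and viability was read by CellTiter-Glo. Suffixes _1/_2/_3 on drug names are replicates.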

[2] = test system: UT-SCC-106A; assay: maximal % inhibition of viability relative to DMSO; higher = stronger effect
Procedure, shortened: (§1)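 Using 384-well plates, 500 cells/well of HPV-negative HNSCC cell lines were grown on plastic, on 500 µg/mL Matrigel or Myogel coatings, or embedded in Matrigel or Myogel with rat collagen I. They were treated with compounds at five 10-fold concentrations for 3 days, and luminescence from CellTiter-Glo 2.0 was normalised to vehicle (0.1% DMSO) and cell-killing control wells. IC50, maximal inhibition and drug sensitivity score were derived from percent-inhibition dose–response curves in the FIMM pipeline.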

[3] = test system: UT-SCC-14; assay: as above
Procedure, shortened: as §1

[4] = test system: UT-SCC-28; assay: as above
Procedure, shortened: as §1

[5] = test system: UT-SCC-24A; assay: maximal % inhibition of viability relative to DMSO; higher = stronger effect
Method: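 HNSCC cell lines (500 cells/well, 384-well) were cultured on plastic, on top of (2D) or embedded (3D) in Matrigel or human leiomyoma matrix Myogel (500 ug/mL; Myogel 3D mixed with rat collagen I). Cells were treated for 3 days with 5 ten-fold concentrations of each drug, and viability was read by CellTiter-Glo. Viability was normalised to DMSO (0% inhibition) and 100 uM benzethonium chloride (100% inhibition) controls and fitted with the FIMM DSRT pipeline to give IC50 (nM), maximal % inhibition and the drug sensitivity score (DSS). Suffixes _1/_2/_3 on drug names are replicates.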

[6] = test system: UT-SCC-106A; assay: drug sensitivity score (DSS); higher = more sensitive; extreme values may be limits of the assay
Procedure, shortened: as §1

[7] = test system: UT-SCC-14; assay: as above
Procedure, shortened: as §1

[8] = test system: UT-SCC-24B; assay: as above
Procedure, shortened: as §1

[9] = test system: UT-SCC-28; assay: as above
Procedure, shortened: as §1

[10] = test system: UT-SCC-40; assay: as above
Procedure, shortened: as §1

[11] = test system: UT-SCC-42A; assay: as above
Procedure, shortened: as §1

[12] = test system: UT-SCC-42B; assay: as above
Procedure, shortened: as §1

[13] = test system: UT-SCC-44; assay: as above
Procedure, shortened: as §1

[14] = test system: UT-SCC-73; assay: as above
Procedure, shortened: as §1

[15] = test system: UT-SCC-81; assay: as above
Procedure, shortened: as §1

[16] = test system: UT-SCC-8; assay: as above
Procedure, shortened: as §1

[17] = culture condition: embedded in Matrigel
[18] = culture condition: embedded in Myogel + collagen I
[19] = culture condition: on top of Matrigel
[20] = culture condition: on top of Myogel
[21] = culture condition: plastic 2D (no matrix)

In the case of `CO[C@H]1C[C@@H]2CC[C@@H](C)[C@@](O)(O2)C(=O)C(=O)N2CCCC[C@H]2C(=O)O[C@H]([C@H](C)C[C@@H]2CC[C@@H](OP(C)(C)=O)[C@H](OC)C2)CC(=O)[C@H](C)/C=C(\C)[C@@H](O)[C@@H](OC)C(=O)[C@H](C)C[C@H](C)/C=C/C=C/C=C/1C` [Ridaforolimus], the drug sensitivity score [1, 17] is reported as 10.2 ± 10 DSS, the drug sensitivity score [1, 18] is reported as 5.43 ± 0.71 DSS and the drug sensitivity score [1, 19] is reported as 4.57 ± 1.2 DSS. The drug sensitivity score [1, 20] was 5.03 ± 1.4 DSS, the drug sensitivity score [1, 21] was 5.87 ± 0.67 DSS and the “maximal % inhibition of viability” value [2, 17] was 35 ± 4.2%. For the same compound, the “maximal % inhibition of viability” value [2, 18] was 27.4 ± 2.9%, the “maximal % inhibition of viability” value [2, 19] was 34.5 ± 4% and the “maximal % inhibition of viability” value [2, 20] was 27.5 ± 2.6%. The “maximal % inhibition of viability” value [2, 21] was 41 ± 1.9%, the “maximal % inhibition of viability” value [3, 17] was 53.4 ± 6.2% and the “maximal % inhibition of viability” value [3, 18] was 57.5 ± 6.6%. The “maximal % inhibition of viability” value [3, 19] was 54.5 ± 9.4%, the “maximal % inhibition of viability” value [3, 20] was 48.6 ± 5.5% and the “maximal % inhibition of viability” value [3, 21] was 50.7 ± 12%. For the same compound, the “maximal % inhibition of viability” value [4, 17] was 30.9 ± 9.3%, the “maximal % inhibition of viability” value [4, 18] was 31.5 ± 18% and the “maximal % inhibition of viability” value [4, 19] was 34.8 ± 4.5%. The “maximal % inhibition of viability” value [4, 21] was 33.4 ± 2.9%, the “maximal % inhibition of viability” value [5, 17] was 56.1 ± 36% and the “maximal % inhibition of viability” value [5, 18] was 35.7 ± 4%. The “maximal % inhibition of viability” value [5, 19] was 29.4 ± 3.8%, the “maximal % inhibition of viability” value [5, 20] was 32.7 ± 3.6% and the “maximal % inhibition of viability” value [5, 21] was 33 ± 5.9%. For the same compound, the drug sensitivity score [6, 17] was 4.2 ± 1.4 DSS, the drug sensitivity score [6, 18] was 2.63 ± 0.21 DSS and the drug sensitivity score [6, 19] was 6.4 ± 3.5 DSS. It also gave a drug sensitivity score [6, 20] of 2.9 ± 1.1 DSS, a drug sensitivity score [6, 21] of 7.57 ± 1.7 DSS and a drug sensitivity score [7, 17] of 13.8 ± 3.1 DSS. The drug sensitivity score [7, 18] was 15.2 ± 1.2 DSS, the drug sensitivity score [7, 19] was 12.9 ± 1.5 DSS and the drug sensitivity score [7, 20] was 13 ± 2.4 DSS. For the same compound, the drug sensitivity score [7, 21] was 11.9 ± 2.8 DSS, the drug sensitivity score [8, 17] was 2.9 ± 2.8 DSS and the drug sensitivity score [8, 18] was 7.87 ± 0.8 DSS. It also gave a drug sensitivity score [8, 19] of 3.8 ± 0.66 DSS, a drug sensitivity score [8, 20] of 4.63 ± 1.4 DSS and a drug sensitivity score [8, 21] of 5.37 ± 2 DSS. The drug sensitivity score [9, 17] was 4.87 ± 2.8 DSS, the drug sensitivity score [9, 18] was 4.37 ± 4 DSS and the drug sensitivity score [9, 19] was 6.87 ± 2.6 DSS. For the same compound, the drug sensitivity score [9, 21] was 6.37 ± 3.5 DSS, the drug sensitivity score [10, 17] was 4.97 ± 2.8 DSS and the drug sensitivity score [10, 18] was 7.83 ± 3.9 DSS. For the same compound, the drug sensitivity score [10, 19] was 4.8 ± 0.78 DSS, the drug sensitivity score [10, 20] was 4.23 ± 0.46 DSS and the drug sensitivity score [10, 21] was 3.77 ± 0.47 DSS. The drug sensitivity score [11, 17] was 3.43 ± 0.55 DSS, the drug sensitivity score [11, 18] was 5.73 ± 1.1 DSS and the drug sensitivity score [11, 19] was 6.43 ± 1.4 DSS. The drug sensitivity score [11, 20] was 5.2 ± 1.3 DSS, the drug sensitivity score [11, 21] was 5.6 ± 2.1 DSS and the drug sensitivity score [12, 17] was 0.8 ± 0.76 DSS. For the same compound, the drug sensitivity score [12, 19] was 0.233 ± 0.4 DSS, the drug sensitivity score [12, 20] was 0.367 ± 0.4 DSS and the drug sensitivity score [12, 21] was 0.4 ± 0.36 DSS. The drug sensitivity score [13, 17] was 6.7 ± 3.6 DSS, the drug sensitivity score [13, 18] was 6.23 ± 0.99 DSS and the drug sensitivity score [13, 19] was 10.7 ± 2.2 DSS. For the same compound, the drug sensitivity score [13, 20] was 11.2 ± 1.4 DSS, the drug sensitivity score [13, 21] was 9.63 ± 3 DSS and the drug sensitivity score [14, 17] was 7.23 ± 3 DSS. For the same compound, the drug sensitivity score [14, 18] was 8.57 ± 6 DSS, the drug sensitivity score [14, 19] was 6.9 ± 1.3 DSS and the drug sensitivity score [14, 20] was 8 ± 0.79 DSS. It also gave a drug sensitivity score [14, 21] of 4.93 ± 0.94 DSS, a drug sensitivity score [15, 17] of 8.6 ± 4.5 DSS and a drug sensitivity score [15, 18] of 11.8 ± 3.1 DSS. For the same compound, the drug sensitivity score [15, 19] was 9.37 ± 2.3 DSS, the drug sensitivity score [15, 20] was 10.9 ± 4 DSS and the drug sensitivity score [15, 21] was 8.77 ± 5 DSS. The drug sensitivity score [16, 17] was 9.67 ± 4 DSS, the drug sensitivity score [16, 18] was 4.03 ± 1 DSS and the drug sensitivity score [16, 19] was 9.27 ± 3.7 DSS. For the same compound, the drug sensitivity score [16, 20] was 12.5 ± 4.2 DSS and the drug sensitivity score [16, 21] was 10.2 ± 3.6 DSS.
